Measured values: patent US20250205230A1 (priority 2022, published 2025)
Converted amounts (≈) assume the structure as drawn. Like-named read-outs stand apart in the source and are kept apart here.

Key:
PERK [1] = assay type: cell-based; details: for increase in eIF2α phosphorylation: 20 μM, 0.1 MOI, lysed 24 h; for eIF2α phosphorylation (eIF2α-P relative to total eIF2α), in words: HEK293 infected at 0.1 MOI, 10 or 20 μM, lysed 24 hours post-infection
[2] = test system: asialoglycoprotein receptor H2b; test: Oligosaccharide maturation of H2b in transfected HEK293 cells (western blot); assay type: cell-based; details: Endo H
ACE2 = test: Oligosaccharide maturation of ACE2 in transfected HEK293 cells (western blot); assay type: cell-based; details: Endo H or N-glycanase
PERK [3] = test: eIF2α phosphorylation in non-infected HEK293 cells; assay type: cell-based; details: lysed 24 hours post-treatment
SARS-CoV-2 = assay type: cell-based
VSVΔ51M [4] = assay type: cell-based, vesicular stomatitis Indiana virus (VSV); details: 10 μM
Lipophilicity (logD7.4) = details: for logD: pH 7.4
[5] = test system: TGEV (an alpha-coronavirus); details: cited from earlier work
VSVΔ51M [6] = assay type: cell-based, vesicular stomatitis Indiana virus (VSV)
[7] = treatment began at the start of the infection

Row | Compound | increase in eIF2α phosphorylation (PERK [1]; treatment began 3 hours after the start of the infection) | increase in eIF2α phosphorylation (PERK [1]; [7]) | eIF2α phosphorylation (eIF2α-P relative to total eIF2α), in words (PERK [1]) | effect on maturation of H2b [2] | solubility (Solubility) [µM] | effect on maturation of ACE2 (ACE2) | increase in eIF2α phosphorylation (PERK [3]; 10 μM) | increase in eIF2α phosphorylation (PERK [3]; 20 μM) | reduction of SARS-CoV-2 replication (titer of infectious virions) (SARS-CoV-2) | inhibition of replication, comparison between compounds (VSVΔ51M [4]) | reduction of titer of infectious virions (VSVΔ51M [4]) | logD (Lipophilicity (logD7.4)) | expression of TGEV viral proteins and viral titers [5] | solubility compared to MK-28 (Solubility; ratio GLB7 vs MK-28) | infectivity (VSV-G level), in words (VSVΔ51M [6]) | decrease in infectivity (VSV-G relative to actin) (VSVΔ51M [6]; 20 μM) | lipophilicity, in words (Lipophilicity (logD7.4); compared with MK-28)
1 | CN(N=Cc1ccc(O)c(O)c1)c1nc(-c2ccccc2)cc(-c2ccccc2)n1 [MK-28, 4-((2-(4,6-diphenylpyrimidin-2-yl)-2-methylhydrazineylidene)methyl) benzene-1,2-diol] | about 4 fold | about 5 fold | strong increase | no effect | 1.4 (≈ 0.555 µg/mL) | no effect | about 1.4 fold | about 1.1 fold | 10- to 100 fold | greater inhibition of replication than did GLB7 | several orders of magnitude | 4.5 | – | – | – | – | –
2 | O=C(COc1ccc(Cl)cc1)NC1CCC(NC(=O)COc2ccc(Cl)cc2)CC1 (centres unmarked) [ISRIB] | – | – | – | – | – | – | – | – | – | – | – | – | increased | – | – | – | –
3 | Oc1ccc(C=NNc2nc(-c3ccccc3)cc(-c3ccccc3)n2)cc1O (racemic) [GLB7, 4-((2-(4,6-diphenylpyrimidin-2-yl)hydrazono)methyl)benzene-1,2-diol] | – | about 1.5 fold | strong increase | – | 16 (≈ 6.12 µg/mL) | – | – | – | – | greater inhibition than MK-28 | several orders of magnitude | 3.6 | – | more than 10 fold | major decrease in infectivity | about 3 fold | decreased lipophilicity
